Values of other authors, collected in patent US6903092B2, “Naphthamide neurokinin antagonists for use as medicaments” (priority 2000, dated 2005).
Read-outs that look alike come from different tables or passages of the source. Square brackets hold non-standard residues; d marks the D form. Peptide text beside a SMILES is read from it. * marks the point of attachment. Cyclohexanecarbonyl = O=C(C1CCCCC1)*

Tests used:
Marmoset = details: Walsh et al., Psychopharmacology 121: 186-191, 1995
[1] = not given; remark: listed apart in the source
[2] = not given; remark: listed apart in the source
[3] = Vassout et al, Neuropeptides 26/S1: 38, 1994; only at 30 mg/kg bid
[4] = Stratton et al., Eur. J. Pharmacol. 250: R11-12, 1993
[5] = Walsh et al., Psychopharmacology 121: 186-191, 1995
[6] = Vassout et al, Neuropeptides 26/S1: 38, 1994
[7] = Teixeira et al., Eur J Pharmacol 311(1): 7-14, 1996

## C[C@H](NC(=O)CNC(=O)C1CCCCC1)C(=O)N[C@H](Cc1c[nH]c2ccccc12)C(=O)N[C@@H](Cc1ccccc1)C(=O)N(C)C [GR100679] (Cyclohexanecarbonyl-GA[dW]F-NMe2)
[4]
  Outcome, Light-dark box: anxiolytic

## COC1(C[S@@+]([O-])c2ccccc2)CCN(CCc2c[nH]c3ccc(F)cc23)CC1 [GR159897]
[5]
  Outcome, Light-dark box: anxiolytic
Marmoset
  Outcome, Marmoset human intruder: anxiolytic

## Cc1cc(C)cc(C(=O)N2CC[C@H](NCc3ccnc4ccccc34)C[C@H]2Cc2ccccc2)c1 [CGP 49823]
[1]; [6]
  Outcome, Elevated plus-maze: inactive
[2]; File, Pharm Bio B 58(3): 747-752, 1997
  Outcome, Social interaction: anxiolytic
[2]; [6]
  Outcome, Social interaction test: anxiolytic
[3]
  Outcome, Forced swim test (depression model): antidepressant

## CN(Cc1ccccc1)C(=O)[C@H](Cc1ccc2ccccc2c1)NC(=O)[C@@H]1C[C@@H](O)CN1C(=O)c1cn(C)c2ccccc12 [FK888]
[1]; [7]
  Outcome, Elevated plus-maze: anxiolytic

## CC(=O)NC1(c2ccccc2)CCN(CC[C@H](CN(C)C(=O)c2ccccc2)c2ccc(Cl)c(Cl)c2)CC1 [SR48968]
[1]; [7]
  Outcome, Elevated plus-maze: anxiolytic
[4]
  Outcome, Light-dark box: anxiolytic
[5]
  Outcome, Light-dark box: anxiolytic
Marmoset
  Outcome, Marmoset human intruder: anxiolytic
